Measured values as given in PubChem BioAssay AID1918996 (Molecular Pharmacology Branch, DTP, NCI, 2023).

System: 349418-098-R-PDC complex spheroid growth
Experiment: Anticancer human tumor 349418-098-R-PDC patient-derived lung adenocarcinoma cell line growth inhibition [AhR]
Details: for IC50: curve of first compound; for viability, T/C: stronger effect = lower value
Outline: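 Complex tumor spheroids co-cultured with HUVEC and human MSC stroma; AhR antagonists tested in combination with standard-of-care and investigational agents. Top concentration at or near clinical Cmax (else 10 microM), half-log dilutions; growth expressed as percent test/control.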

[1] = second compound 0.1 µM, first compound 0.0316 µM
[2] = second compound 0.1 µM, first compound 0.1 µM
[3] = second compound 0.1 µM, first compound 0.316 µM
[4] = second compound 0.1 µM, first compound 1 µM
[5] = second compound 0.1 µM, first compound 3.16 µM
[6] = second compound 0.1 µM, first compound 10 µM
[7] = second compound 0.316 µM, first compound 0.0316 µM
[8] = second compound 0.316 µM, first compound 0.1 µM
[9] = second compound 0.316 µM, first compound 0.316 µM
[10] = second compound 0.316 µM, first compound 1 µM
[11] = second compound 0.316 µM, first compound 3.16 µM
[12] = second compound 0.316 µM, first compound 10 µM
[13] = second compound 1 µM, first compound 0.0316 µM
[14] = second compound 1 µM, first compound 0.1 µM
[15] = second compound 1 µM, first compound 0.316 µM
[16] = second compound 1 µM, first compound 1 µM
[17] = second compound 1 µM, first compound 3.16 µM
[18] = second compound 1 µM, first compound 10 µM
[19] = second compound 3.16 µM, first compound 0.0316 µM
[20] = second compound 3.16 µM, first compound 0.1 µM
[21] = second compound 3.16 µM, first compound 0.316 µM
[22] = second compound 3.16 µM, first compound 1 µM
[23] = second compound 3.16 µM, first compound 3.16 µM
[24] = second compound 3.16 µM, first compound 10 µM
[25] = second compound 10 µM, first compound 0.0316 µM
[26] = second compound 10 µM, first compound 0.1 µM
[27] = second compound 10 µM, first compound 0.316 µM
[28] = second compound 10 µM, first compound 1 µM
[29] = second compound 10 µM, first compound 3.16 µM
[30] = second compound 10 µM, first compound 10 µM
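Note: spheroids exposed to agents for seven days before luminescence viability read.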
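Throughout, for viability, T/C: spheroids also contain HUVEC endothelial cells and human MSC stroma.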

| Structure (SMILES) | IC50 (second compound 0.1 µM) | IC50 (second compound 0.316 µM) | IC50 (second compound 1 µM) | IC50 (second compound 3.16 µM) | IC50 (second compound 10 µM) | viability, T/C [1] | viability, T/C [2] | viability, T/C [3] | viability, T/C [4] | viability, T/C [5] | viability, T/C [6] | viability, T/C [7] | viability, T/C [8] | viability, T/C [9] | viability, T/C [10] | viability, T/C [11] | viability, T/C [12] | viability, T/C [13] | viability, T/C [14] | viability, T/C [15] | other results |
| --- | --- | --- | --- | --- | --- | --- | --- | --- | --- | --- | --- | --- | --- | --- | --- | --- | --- | --- | --- | --- | --- |
| COc1cc(C2c3cc4c(cc3C(OC3OC5COC(C)OC5C(O)C3O)C3COC(=O)C23)OCO4)cc(OC)c1O (stereo not given) + Cc1cncc(-c2nc(NCCc3c[nH]c4ccccc34)c3ncn(C(C)C)c3n2)c1 | 476 nM | 384 nM | 426 nM | < 31.6 nM | < 31.6 nM | 97.8% | 99% | 62.4% | 24.9% | 9.98% | 4.8% | 103% | 86.5% | 58.3% | 19.1% | 8.45% | 5.08% | 93.3% | 90.9% | 59.6% | viability, T/C [16]: 20.9%; viability, T/C [17]: 9.01%; viability, T/C [18]: 6.23%; viability, T/C [19]: 24%; viability, T/C [20]: 19.2%; viability, T/C [21]: 14.8%; viability, T/C [22]: 10.2%; viability, T/C [23]: 7.3%; viability, T/C [24]: 4.57%; viability, T/C [25]: 1.7%; viability, T/C [26]: 1.71%; viability, T/C [27]: 1.45%; viability, T/C [28]: 1.18%; viability, T/C [29]: 1.04%; viability, T/C [30]: 1.29% |
| CC(C)c1c(-c2ccccc2)nc2c(C#N)c[nH]n2c1=O + Cc1ccccc1N=Nc1ccc(NC(=O)c2ccnn2C)c(C)c1 | > 10000 nM | > 10000 nM | > 10000 nM | > 10000 nM | > 10000 nM | 79.3% | 85.6% | 95.2% | 98% | 78% | 76.5% | 88.2% | 87.3% | 86.2% | 88.7% | 80% | 84.7% | 91.6% | 79.8% | 88.8% | viability, T/C [16]: 91.4%; viability, T/C [17]: 79.9%; viability, T/C [18]: 58.7%; viability, T/C [19]: 81.7%; viability, T/C [20]: 89.9%; viability, T/C [21]: 85.2%; viability, T/C [22]: 85.7%; viability, T/C [23]: 53.9%; viability, T/C [24]: 62.4%; viability, T/C [25]: 47.5%; viability, T/C [26]: 58.1%; viability, T/C [27]: 59.1%; viability, T/C [28]: 50.4%; viability, T/C [29]: 44.7%; viability, T/C [30]: 57.1% |
